We go through 14 compounds from patent publication US7829585B2, “Antifungal agent containing pyridine derivative” (Eisai R&D Management Co., Ltd., priority 2005, dated 2010).

In assay [1] the test system is C. albicans E81022 strain. In words: Anti-Candida activity, MIC measurement (broth dilution, visual inspection). To be noted: Candida albicans, E81022STRAIN, C. albicans E81022, RPMI1640, 48 hours at 35° C., read-out: Anti-Candida activity (minimum growth inhibitory concentration, MIC). It is filed as cell-based. The protocol: (§1) For the C. albicans E81022 strain, a fungal suspension from a standing culture 48 hours at 30° C. in a Sabouraud dextrose liquid culture medium (SDB) was diluted 10000-fold with 1.3-times concentrated RPMI1640 medium to prepare a fungal suspension containing 1 to 2×10^4 cells/ml. For the A. fumigatus Tsukuba strain, −80° C. stored strain was diluted 1000-fold with 1.3-times concentrated RPMI1640 medium to prepare a fungal suspension containing 2 to 3×10^3 cells/ml.
(§2) Using a U-shaped bottomed 96-well plates, 8 samples/plate (A to H) of sample dilution solutions were prepared. On the first row was dispensed 240 μl of sterile distilled water, and on the 2nd to 12th row were dispersed 125 μL of 4% dimethylsulfoxide solution. Weighed sample was dissolved in dimethylsulfoxide to prepare a 5 mg/ml solution followed by adding 10 μL of the solutions to the first row of the prepared plates and preparing 12-step serial 2-fold dilutions (125 μL of solution+125 μL of 4% dimethylsulfoxide solution) on the plates.
(§3) The fungal suspension prepared in (1) was used in the amount of 75 μL/well to inoculate the flat-bottomed 96-well plates containing 25 μL/well of the test compound prepared in (2), and a standing culture was carried out aerobically for 48 hours at 35° C.
A general note: Broth dilution looks for growth in wells or tubes with falling amounts of substance.

Assay [2] deals with A. fumigatus Tsukuba strain. In words: Anti-Aspergillus activity, MIC measurement (broth dilution, visual inspection). As to conditions: RPMI1640, 48 hours at 35° C., read-out: Anti-Aspergillus activity (minimum growth inhibitory concentration, MIC). It is filed as cell-based. The protocol: as §1, §2, §3
For assay [3], the system named is C. albicans E81022 strain. Nature of the assay: Experimental systemic Candida infection model in mice. It is filed as in vivo. To be noted: female ICR mice, C. albicans E81022 i.v. 4×10^6 cells/mouse; 10 mg/kg peroral, three times every 4 hours; observed until 14 days after infection. The protocol: A standing culture of C. albicans E81022 strain was static cultured for 48 hours at 30° C. in Sabouraud's dextrose agar (SDA), and the recovered fungal cells were suspended in sterilized physiological saline. By counting the fungal number on cytometry plate, the suspension was diluted to 2×10^7 cells/mL with sterilized saline to serve fungal inoculant.
The fungal inoculum was used in the amounts of 0.2 mL to inoculate 4.5 to 5.5 week-old femal ICR mice in the tail vein (4×10^6 cells/mouse).
From 0.5 to 1 hour after fungal inoculation, 0.2 mL of agent solution (dissolved or suspended in sterilized saline containing 6.5% dimethylsulfoxide and 3.5% Tween 80) was administered into the stomach using a peroral probe, three times every 4 hours. The agent concentration was set at 10 mg/kg and the number of animals in one group was 5 animals.
The protective effect was determined by observing life/death until 14 days after infection and calculating the mean survival days.

Converted amounts (≈) assume the structure as drawn.

Take `Nc1ccc(C(=O)NCc2cc3ccc(OCc4ccccc4)cc3o2)c(N)n1` [Example 1, 2,6-Diamino-N-(6-benzyloxy-benzofuran-2-ylmethyl)-nicotinamide]: the MIC worked out at 0.39 µg/mL (≈ 1 µM) in assay [1] and 1.56 µg/mL (≈ 4.02 µM) in assay [2]. Besides, the “Mean Survival Days” value in assay [3] is on record as 9.6 days.
The like results for `CCOc1ccc2cc(CNC(=O)c3ccc(N)nc3N)oc2c1` [Example 2, 2,6-Diamino-N-(6-ethoxy-benzofuran-2-ylmethyl)-nicotinamide] were, in that order, 1.56 µg/mL (≈ 4.78 µM), 3.13 µg/mL (≈ 9.59 µM) and 8.6 days.
For `Nc1ccc(C(=O)NCc2cc3ccc(OCC4CC4)cc3o2)c(N)n1` [Example 3, 2,6-Diamino-N-(6-cyclopropylmethoxy-benzofuran-2-ylmethyl)-nicotinamide], the MIC stood at 1.56 µg/mL (≈ 4.43 µM) in assay [1] and 0.78 µg/mL (≈ 2.21 µM) in assay [2]. Besides, the “Mean Survival Days” value in assay [3] came to 8.6 days.
Consider `COCc1ccc(C(=O)NCc2cc3ccc(OCc4ccccc4)cc3o2)c(N)n1` [Example 4, 2-Amino-N-(6-benzyloxy-benzofuran-2-ylmethyl)-6-methoxymethyl-nicotinamide], for which the MIC amounted to 0.78 µg/mL (≈ 1.87 µM) in assay [1] and 3.13 µg/mL (≈ 7.5 µM) in assay [2]. In assay [3], the “Mean Survival Days” value was 10.2 days.
`C=CCOc1ccc2cc(CNC(=O)c3ccc(COC)nc3N)oc2c1` [Example 5, N-(6-Allyloxy-benzofuran-2-ylmethyl)-2-amino-6-methoxymethyl-nicotinamide]: the MIC in assay [1] and in assay [2] was 0.78 µg/mL (≈ 2.12 µM) each time. The “Mean Survival Days” value in assay [3] came to 12.8 days.
For `COCc1ccc(C(=O)NCc2cc3ccc(OCC4CC4)cc3o2)c(N)n1` [Example 6, 2-Amino-N-(6-cyclopropylmethoxy-benzofuran-2-ylmethyl)-6-methoxymethyl-nicotinamide], the MIC is 0.78 µg/mL (≈ 2.04 µM) in assay [1] and 1.56 µg/mL (≈ 4.09 µM) in assay [2]. For the same compound, the “Mean Survival Days” value in assay [3] stood at 11.4 days.
In the case of `COCc1ccc(C(=O)NCc2cc3cc(OCc4ccccc4)ccc3o2)c(N)n1` [Example 7, 2-Amino-N-(5-benzyloxy-benzofuran-2-ylmethyl)-6-methoxymethyl-nicotinamide], the MIC in assay [1] was found to be 0.39 µg/mL (≈ 0.934 µM); in assay [2], 1.56 µg/mL (≈ 3.74 µM). Moreover, in assay [3], the “Mean Survival Days” value is given as 8.8 days.
`C=CCOc1ccc2cc(CNC(=O)c3ccc(N)nc3N)oc2c1` [Example 9, N-(6-Allyloxy-benzofuran-2-ylmethyl)-2,6-diamino-nicotinamide]: in assay [3], the “Mean Survival Days” value was 9.6 days.
For the compound `CCC(C)COc1ccc2cc(CNC(=O)c3cccnc3N)oc2c1` (stereo not shown) [Example 65, 2-Amino-N-(6-(2-methyl-butoxy)-benzofuran-2-ylmethyl)-nicotinamide], the MIC in assay [1] is 1.56 µg/mL (≈ 4.41 µM); in assay [2], 3.13 µg/mL (≈ 8.86 µM).
The corresponding values for `CC=CCOc1ccc2cc(CNC(=O)c3cccnc3N)oc2c1` [Example 69, 2-Amino-N-(6-but-2-enyloxy-benzofuran-2-ylmethyl)-nicotinamide] are 0.39 µg/mL (≈ 1.16 µM) and 0.39 µg/mL (≈ 1.16 µM).
Take `C#CCOc1ccc2cc(CNC(=O)c3cccnc3N)oc2c1` [Example 70, 2-Amino-N-(6-prop-2-ynyloxy-benzofuran-2-ylmethyl)-nicotinamide]: the MIC in assay [1] came out at 0.78 µg/mL (≈ 2.43 µM); in assay [2] it was 1.56 µg/mL (≈ 4.85 µM).
Take `Nc1ncccc1C(=O)NCc1cc2ccc(OCC3CC3)cc2o1` [Example 72, 2-Amino-N-(6-cyclopropylmethoxy-benzofuran-2-ylmethyl)-nicotinamide]: the MIC in assay [1] stood at 0.78 µg/mL (≈ 2.31 µM); in assay [2] it was 1.56 µg/mL (≈ 4.62 µM).
In the case of `COCc1ccc(C(=O)NCc2cc3ccc(OCc4ccccc4)cc3s2)c(N)n1` [Example 77, 2-Amino-N-(6-benzyloxy-benzo[b]thiophen-2-ylmethyl)-6-methoxymethyl-nicotinamide], the results for the MIC in assay [1] and in assay [2] were 0.39 µg/mL (≈ 0.9 µM) and 3.13 µg/mL (≈ 7.22 µM), respectively.
Consider `Nc1ccc(C(=O)NCc2cc3ccc(OCc4ccccc4)cc3s2)c(N)n1` [Example 78, 2,6-Diamino-N-(6-benzyloxy-benzo[b]thiohen-2-ylmethyl)-nicotinamide], for which the figures for the MIC in assay [1] and in assay [2] were 0.39 µg/mL (≈ 0.964 µM) and 1.56 µg/mL (≈ 3.86 µM), respectively.
